What was measured:
CX3CR1 [1] = target: T1, CX3CR1 (Homo sapiens (Human), UniProt P49238); test: hCX3CR1 [3H]-AZD8797 competitive binding assay (filter); settings: CHO-hCX3CR1 membranes, 2 nM [3H]-AZD8797
Outline: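 CHO-hCX3CR1 membranes (9 μg/well) were incubated 2 h at room temperature with 2 nM [3H]-AZD8797 and varying competitor concentrations. Buffer: 25 mM HEPES pH 7.4, 10 mM MgCl2, 1 mM CaCl2, 0.5% BSA, 1% DMSO. Bound ligand was collected by vacuum filtration, washed in ice-cold buffer with 500 mM NaCl, and counted by scintillation.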

CX3CR1 [2] = target: T1, CX3CR1; test: hCX3CR1 [125I]-CX3CL1 displacement binding (SPA); settings: CHO-hCX3CR1 membranes, [125I]-CX3CL1, SPA beads
Description: hCX3CR1 [^125I]-CX3CL1 Displacement Binding (SPA)
CHO-hCX3CR1 membranes (3 μg per well) together with […] [^125I]-CX3CL1 (Perkin Elmer) and different concentrations of competitor compound were incubated together with 400 μg/well WGA coated PVT SPA beads (Perkin Elmer) in 50 mM HEPES (pH 7.4), 10 mM MgCl2, 1 mM EDTA and 0.1% Gelatin in a Greiner polystyrene flat-bottom 384-well plate. The plate was incubated for 20 h at room temperature before the radioactivity was measured using a MicroBeta Trilux reader (PerkinElmer). The DMSO concentration was held constant at 1%.

T1 sequence (P49238 whole entry): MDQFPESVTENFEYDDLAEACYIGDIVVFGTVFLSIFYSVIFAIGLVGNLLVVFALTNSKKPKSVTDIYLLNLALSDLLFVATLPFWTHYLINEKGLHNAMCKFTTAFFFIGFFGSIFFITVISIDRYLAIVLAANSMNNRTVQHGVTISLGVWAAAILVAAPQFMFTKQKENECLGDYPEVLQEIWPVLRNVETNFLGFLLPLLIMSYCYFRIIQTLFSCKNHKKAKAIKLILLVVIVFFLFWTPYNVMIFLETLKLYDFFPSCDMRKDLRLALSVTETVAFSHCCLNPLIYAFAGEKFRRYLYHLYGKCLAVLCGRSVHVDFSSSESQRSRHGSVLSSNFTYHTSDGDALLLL

Structure (SMILES) | IC50 (CX3CR1 [1]) [nM] | IC50 (CX3CR1 [2]) [nM]
COc1ncccc1[C@H](C)Cc1nc(N[C@@H](CO)CC(C)C)nc(NS(C)(=O)=O)n1 (single isomer, unassigned) [Example 17, N-(4-(((R)-1-Hydroxy-4-methylpentan-2-yl)amino)-6-((R*)-2-(2-methoxypyridin-3-yl)propyl)-1,3,5-triazin-2-yl)methanesulfonamide] | 307 | 4370
COc1ncc([C@H](C)Cc2nc(N[C@@H](CO)CC(C)C)nc(NS(C)(=O)=O)n2)cc1Cl (single isomer, unassigned) [Example 9, N-(4-((R*)-2-(5-Chloro-6-methoxypyridin-3-yl)propyl)-6-(((R)-1-hydroxy-4-methylpentan-2-yl)amino)-1,3,5-triazin-2-yl)methanesulfonamide] | 205 | > 10000
CC(C)C[C@H](CO)Nc1nc(C[C@H](C)c2ccc(F)cc2)nc(NS(C)(=O)=O)n1 (single isomer, unassigned) [Example 80, N-(4-((S*)-2-(4-Fluorophenyl)propyl)-6-(((R)-1-hydroxy-4-methylpentan-2-yl)amino)-1,3,5-triazin-2-yl)methanesulfonamide] | 2210 | 4900
COc1cc(C)c([C@H](C)Cc2nc(N[C@@H](CO)CC(C)C)nc(NS(C)(=O)=O)n2)cn1 (single isomer, unassigned) [Example 13, N-(4-(((R)-1-Hydroxy-4-methylpentan-2-yl)amino)-6-((R*)-2-(6-methoxy-4-methylpyridin-3-yl)propyl)-1,3,5-triazin-2-yl)methanesulfonamide] | 614 | 4250
CC(C)C[C@H](CO)Nc1nc(C[C@@H](C)c2ccc(Cl)cc2F)nc(NS(C)(=O)=O)n1 (single isomer, unassigned) [Example 84, N-(4-((R*)-2-(4-Chloro-2-fluorophenyl)propyl)-6-(((R)-1-hydroxy-4-methylpentan-2-yl)amino)-1,3,5-triazin-2-yl)methanesulfonamide] | 173 | 348
COc1ncc([C@@H](C)Cc2nc(N[C@@H](CO)CC(C)C)nc(NS(C)(=O)=O)n2)cc1C (single isomer, unassigned) [Example 16, N-(4-(((R)-1-Hydroxy-4-methylpentan-2-yl)amino)-6-((S*)-2-(6-methoxy-5-methylpyridin-3-yl)propyl)-1,3,5-triazin-2-yl)methanesulfonamide] | 4930 | > 30000
COc1ncc([C@H](C)Cc2nc(N[C@@H](CO)CC(C)C)nc(NS(C)(=O)=O)n2)cc1C (single isomer, unassigned) [Example 15, N-(4-(((R)-1-Hydroxy-4-methylpentan-2-yl)amino)-6-((R*)-2-(6-methoxy-5-methylpyridin-3-yl)propyl)-1,3,5-triazin-2-yl)methanesulfonamide] | 252 | 2990
CC(C)C[C@H](CO)Nc1nc(C[C@H](C)c2cccc(Cl)c2F)nc(NS(C)(=O)=O)n1 (single isomer, unassigned) [Example 3, N-(4-((S*)-2-(3-Chloro-2-fluorophenyl)propyl)-6-(((R)-1-hydroxy-4-methylpentan-2-yl)amino)-1,3,5-triazin-2-yl)methanesulfonamide] | 124 | 448
CCOc1cc(C(C)Cc2nc(N[C@@H](CO)CC(C)C)nc(NS(C)(=O)=O)n2)ccn1 (stereo partly drawn) [Example 67, N-(4-(2-(2-Ethoxypyridin-4-yl)propyl)-6-(((R)-1-hydroxy-4-methylpentan-2-yl)amino)-1,3,5-triazin-2-yl)methanesulfonamide] | 359 | 1830
CC(C)C[C@H](CO)Nc1nc(C[C@@H](C)c2ccc(Cl)c(Cl)c2)nc(NS(C)(=O)=O)n1 (single isomer, unassigned) [Example 2, N-(4-((S*)-2-(3,4-Dichlorophenyl)propyl)-6-(((R)-1-hydroxy-4-methylpentan-2-yl)amino)-1,3,5-triazin-2-yl)methanesulfonamide] | 361 | 362
CC(C)C[C@H](CO)Nc1nc(C[C@H](C)c2ccnc(Cl)c2)nc(NS(C)(=O)=O)n1 (single isomer, unassigned) [Example 25, N-(4-((S*)-2-(2-Chloropyridin-4-yl)propyl)-6-(((R)-1-hydroxy-4-methylpentan-2-yl)amino)-1,3,5-triazin-2-yl)methanesulfonamide] | 1350 | 13500
CC(C)C[C@H](CO)Nc1nc(CC(C)c2ccnc(Cl)c2)nc(NS(C)(=O)=O)n1 (stereo in doubt) [Example 26, N-(4-((R*)-2-(2-chloropyridin-4-yl)propyl)-6-(((R)-1-hydroxy-4-methylpentan-2-yl)amino)-1,3,5-triazin-2-yl)methanesulfonamide] | 44 | 682
COc1ncc([C@@H](C)Cc2nc(N[C@@H](CO)CC(C)C)nc(NS(C)(=O)=O)n2)cc1Cl (single isomer, unassigned) [Example 10, N-(4-((S*)-2-(5-Chloro-6-methoxypyridin-3-yl)propyl)-6-(((R)-1-hydroxy-4-methylpentan-2-yl)amino)-1,3,5-triazin-2-yl)methanesulfonamide] | 922 | > 20000
COc1ccc([C@H](C)Cc2nc(N[C@@H](CO)CC(C)C)nc(NS(C)(=O)=O)n2)c(OC)n1 (single isomer, unassigned) [Example 52, N-(4-((R*)-2-(2,6-Dimethoxypyridin-3-yl)propyl)-6-(((R)-1-hydroxy-4-methylpentan-2-yl)amino)-1,3,5-triazin-2-yl)methanesulfonamide] | 450 | 5520
COc1ncc([C@@H](C)Cc2nc(N[C@@H](CO)CC(C)C)nc(NS(C)(=O)=O)n2)cc1F (single isomer, unassigned) [Example 8, N-(4-((S*)-2-(5-Fluoro-6-methoxypyridin-3-yl)propyl)-6-(((R)-1-hydroxy-4-methylpentan-2-yl)amino)-1,3,5-triazin-2-yl)methanesulfonamide] | 1350 | > 20000
CCC(Cc1nc(N[C@@H](CO)CC(C)C)nc(NS(C)(=O)=O)n1)c1ccccc1F (stereo partly drawn) [Example 89, N-(4-(2-(2-Fluorophenyl)butyl)-6-(((R)-1-hydroxy-4-methylpentan-2-yl)amino)-1,3,5-triazin-2-yl)methanesulfonamide] | 250 | 987

Reference: patent US20240199558A1, “2,4,6-TRISUBSTITUTED 1,3,5-TRIAZINES AS MODULATORS OF CX3CR1” (ASTRAZENECA AB, priority 2022, published 2024)
